Bridge positions count the residues as written; N and C are the ends. Square brackets hold non-standard residues; d marks the D form. Ends that are not written are not given here. I, II: the chains in the order shown. Ac6c = NC1(C(=O)O)CCCCC1; Dab = NCC[C@H](N)C(=O)O
Experiments:
[1] = in vitro; format: in vitro ADME; details: mouse, serum
Procedure: The metabolic stability of peptide A3-APO in full serum in vitro was examined in peptide degredation studies in blood derived media. A3-APO was added to undiluted mouse serum preparation and was incubated in the full serum for 30 minutes. The serum proteins were precipitated and the serum was submitted for mass spectroscopic analysis.

[2] = in vitro; format: in vitro ADME, mouse
Procedure: The stability of peptide A3-APO was analyzed in commercially available pooled mouse serum diluted to 25% with distilled water as follows. It has been shown that dilution of serum linearly reduces the degradation rate of peptides without changing any other proteolytic parameters (Powell et al., 1992. J. Pharm. Sci. 81: 731-735). […] Specifically, ninety μL of pooled sterile mouse serum (Equitech-Bio, Kerrville, Tex.) was added to 10 μL of peptide A3-APO dissolved in distilled water at 1.28 mg/mL concentration. After incubation periods of 0, 15, 30, 60 or 90, 120 and 240 min at 37° C., 20 μL 15% trichloracetic acid (TCA) was added, the mixture stored at 4° C. for 20 minutes, and centrifuged at 13,000 rpm. The supernatant was submitted to determination of remaining amount of unmodified A3-APO peptide by MS and RP-HPLC.

[3] = test system: K. pneumoniae HK 186
From the text: (§1) To investigate the activity of the A3-APO metabolites, Chex1-Arg20 single chain unit and an Arg7-Arg20 common cleavage fragment were synthesized and studied for their ability to kill Enterobacteriaceae strains in undiluted Muller-Hinton broth, a true measure of potential clinical viability (Otvos et al., 2005. J. Med. Chem. 48: 5349-5359). The peptides of the invention were made on a CEM Liberty automated synthesizer with standard Fmoc-chemistry. The peptides were detached from the resin with the carboxyl terminus of the C-terminal Arg residue being in the form of an amino amide, —C(O)—NH2 (“Chex1-Arg20-NH2” and “Arg7-Arg20-NH2”), while still in the microwave chamber, and were purified by RP-HPLC. […] The biological studies carried out on chemically synthesized peptides in this example and succeeding examples were carried out on the C-terminal modified versions of the peptides wherein the C-terminal carboxylic acid function was in the form of an amide, —C(O)—NH2. Antibacterial growth inhibition assays were performed using sterile 96-well polypropylene plates (Nunc F96 microtiter plates) in a final volume of 100 μL as described previously (Cudic et al., 2002. Peptides 23: 271-283). The cell concentrations were estimated by measuring the ultraviolet absorbance at 600 nm and applying the formula cfu/mL=A600(3.8×10^8), where cfu is the number of colony-forming units. Briefly, 50 μL of a suspension of midlogarithmic phase bacterial cultures diluted to 5×10^5 cfu/mL in Muller-Hinton broth (MHB) was added to 50 μL of serially diluted peptides also dissolved in MHB. The final peptide concentration was 128 μg/mL. Cultures were then incubated at 37° C., 5% CO2 for 16-20 h without shaking, and growth inhibition was measured by recording the absorbance at 600 nm using a microplate reader. […] The minimal inhibitory concentration indicates the lowest peptide dose where no visible bacterial growth is detected after 16 hours incubation in full strength Muller-Hinton broth at 37° C. The peptide Chex-pyrr-Dap dimer was also included in the study. […] (Cudic et al., 2002. Peptides 23: 271-283).
(§2) Following the protocol of Example 2, minimal inhibitory concentrations of the Chex1-Arg20 peptide against selected bacteria was determined. […] A3-APO was included for comparison.

[4] = test system: A. baumannii ATCC BBA-1605
From the text: as §1, §2

[5] = test system: S. typhimurium S5
From the text: as §1, §2

[6] = test system: E. coli HK131
From the text: as §1, §2

[7] = test system: E. coli SEQ102
From the text: as §1, §2

[8] = test system: E. coli SOTE40
From the text: as §1, §2

[9] = test system: E. coli 045-849
From the text: as §1, §2

[10] = test system: K. pneumoniae HK 123
From the text: as §1, §2

[11] = test system: S. typhimurium ATCC 14028
From the text: as §1, §2

[12] = test system: P. aeruginosa ATCC 39329
From the text: as §1, §2

[13] = test system: K. pneumoniae K6
From the text: as §1, §2

[14] = test system: E. coli 5770
From the text: as §1, §2

[15] = test system: K. pneumoniae HK 127
From the text: as §1, §2

[16] = test system: S. saprophyticus ATCC 15305
From the text: as §1, §2

[17] = test system: K. pneumoniae 012-3132
From the text: as §1, §2

[18] = test system: E. coli HK179
From the text: as §1, §2

[19] = test system: S. typhimurium G10215
From the text: as §1, §2

[20] = test system: P. aeruginosa 10
From the text: as §1, §2

[21] = test system: E. coli SEQ102; details: SEQ102, 16 h
From the text: as §1

[22] = test system: E. coli HK179; details: HK179, 16 h
From the text: as §1

[23] = test system: S. typhimurium G10215; details: G10215, 16 h
From the text: as §1

[24] = test system: K. pneumoniae HK123; details: HK123, 16 h
From the text: as §1

I: [Ac6c]RPDKPRPYLPRPRPPRPVR[Dab] / II: [Ac6c]RPDKPRPYLPRPRPPRPVR (amide I:21-II:C (inferred)) [Peptide A3-APO, reference compound]
metabolised at 0.5 h [1]: ~35%
half-life at 0.128 mg/mL ([2]; 25% pooled mouse serum, 37° C.): ~3.83 h
original peptide amount remaining intact within the first hour ([2]; serum): almost half
MIC, K. pneumoniae HK 186 [3]: 8 µg/mL
MIC, A. baumannii ATCC BBA-1605 [4]: 16 µg/mL
MIC, S. typhimurium S5 [5]: 8 µg/mL
MIC, E. coli HK131 [6]: 4 µg/mL
MIC, E. coli SEQ102 [7]: 2 µg/mL
MIC, E. coli SOTE40 [8]: 8 µg/mL
MIC, E. coli 045-849 [9]: 4 µg/mL
MIC, K. pneumoniae HK 123 [10]: 4 µg/mL
MIC, S. typhimurium ATCC 14028 [11]: 8 µg/mL
MIC, P. aeruginosa ATCC 39329 [12]: 8 µg/mL
MIC, K. pneumoniae K6 [13]: 4 µg/mL
MIC, E. coli 5770 [14]: 2 µg/mL
MIC, K. pneumoniae HK 127 [15]: 8 µg/mL
MIC, S. saprophyticus ATCC 15305 [16]: 2 µg/mL
MIC, K. pneumoniae 012-3132 [17]: 2 µg/mL
MIC, E. coli HK179 [18]: 2 µg/mL
MIC, S. typhimurium G10215 [19]: 4 µg/mL
MIC, P. aeruginosa 10 [20]: 8 µg/mL
MIC against E. coli SEQ102 [21]: 16 µg/mL
MIC against E. coli HK179 [22]: 8 µg/mL
MIC against S. typhimurium G10215 [23]: 16 µg/mL
MIC against K. pneumoniae HK123 [24]: 16 µg/mL

Reference: US8492515B2 (priority 2008, dated 2013)
